Measurements: patent US9556130B2, “4-oxo-3,4-dihydro-1,2,3-benzotriazine modulators of GPR139” (Takeda Pharmaceutical Company Limited, priority 2014, dated 2017)

Assays:
human GPR139 receptor [1] = molecular target: T1, human GPR139 receptor (Homo sapiens (Human), UniProt Q6DWJ6); test: Activation of Calcium Signaling of GPR139 In Vitro Assay; type: cell-based; details: stably transfected CHO-TRex cells, Calcium 5 dye, FLIPR Tetra;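 also: receptor expression induced with doxycycline, calcium fluorescence read continuously for one minute after compound addition, EC50 taken from a four-parameter logistic fit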
T1 sequence (Q6DWJ6 whole entry): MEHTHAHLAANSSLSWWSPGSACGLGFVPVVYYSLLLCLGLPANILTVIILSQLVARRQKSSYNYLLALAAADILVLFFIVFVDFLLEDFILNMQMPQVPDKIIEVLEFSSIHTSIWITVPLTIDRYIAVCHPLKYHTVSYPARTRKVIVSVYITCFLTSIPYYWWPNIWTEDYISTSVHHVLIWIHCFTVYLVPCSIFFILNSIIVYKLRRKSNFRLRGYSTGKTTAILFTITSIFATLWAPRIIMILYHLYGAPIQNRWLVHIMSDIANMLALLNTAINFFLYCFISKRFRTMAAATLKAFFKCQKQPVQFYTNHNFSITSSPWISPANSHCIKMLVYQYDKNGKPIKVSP

human GPR139 receptor [2] = molecular target: T1, human GPR139 receptor; test: GPR139 Competition Binding; details: stably transfected CHO-TRex membranes, 1 nM 3H radioligand; read-out: GPR139 Inhibition (Ki (nM));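 also: receptor expression induced with doxycycline before membrane preparation, bound radioactivity counted by scintillation, Ki fitted with a four-parameter logistic model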

| EC50 (human GPR139 receptor [1]) [nM] | Ki (human GPR139 receptor [2]) [nM] | SMILES |
| --- | --- | --- |
| 1510 |  | C[C@H](NC(=O)Cn1nnc2ccccc2c1=O)c1ccc(F)cc1Br [Example 48, (S)—N-(1-(2-bromo-4-fluorophenyl)ethyl)-2-(4-oxobenzo[d][1,2,3]triazin-3(4H)-yl)acetamide] |
| 17 | 173 | Cc1ccc([C@H](C)NC(=O)Cn2nnc3cc(Cl)ccc3c2=O)cc1 [Example 21, (S)-2-(7-chloro-4-oxobenzo[d][1,2,3]triazin-3(4H)-yl)-N-(1-p-tolylethyl)acetamide] |
| 16 | 26 | Cc1ccc([C@H](C)NC(=O)Cn2nnc3c(Cl)cc(Cl)cc3c2=O)cc1 [Example 26, (S)-2-(6,8-dichloro-4-oxobenzo[d][1,2,3]triazin-3(4H)-yl)-N-(1-p-tolylethyl)acetamide] |
| 9 | 72 | Cc1ccc([C@H](C)NC(=O)Cn2nnc3c(C)cccc3c2=O)cc1 [Example 24, (S)-2-(8-methyl-4-oxobenzo[d][1,2,3]triazin-3(4H)-yl)-N-(1-p-tolylethyl)acetamide] |
| 50 | 183 | CC[C@H](NC(=O)Cn1nnc2ccccc2c1=O)c1ccc(OC(F)(F)F)cc1 [Example 86, (S)-2-(4-oxobenzo[d][1,2,3]triazin-3(4H)-yl)-N-(1-(4-(trifluoromethoxy)phenyl)propyl)acetamide] |
| 9 | 708 | Cc1ccc([C@H](C)NC(=O)Cn2nnc3c(F)cccc3c2=O)cc1 [Example 16, (S)-2-(8-fluoro-4-oxobenzo[d][1,2,3]triazin-3(4H)-yl)-N-(1-p-tolylethyl)acetamide] |
| 19 |  | COc1ccc([C@H](C)NC(=O)Cn2nnc3ccc(C)cc3c2=O)cc1 [Example 29, (S)—N-(1-(4-methoxyphenyl)ethyl)-2-(6-methyl-4-oxobenzo[d][1,2,3]triazin-3(4H)-yl)acetamide] |
| 42 | 1520 | COc1ccc([C@H](C)NC(=O)Cn2nnc3cc(C)ccc3c2=O)cc1 [Example 35, (S)—N-(1-(4-methoxyphenyl)ethyl)-2-(7-methyl-4-oxobenzo[d][1,2,3]triazin-3(4H)-yl)acetamide] |
| 49 |  | C[C@H](NC(=O)Cn1nnc2ccc(F)cc2c1=O)c1ccc(OC(F)(F)F)cc1F [Example 71, (S)—N-(1-(2-fluoro-4-(trifluoromethoxy)phenyl)ethyl)-2-(6-fluoro-4-oxobenzo[d][1,2,3]triazin-3(4H)-yl)acetamide] |
| 14 |  | C[C@H](NC(=O)Cn1nnc2ccccc2c1=O)c1ccc(F)cc1Cl [Example 47, (S)—N-(1-(2-chloro-4-fluorophenyl)ethyl)-2-(4-oxobenzo[d][1,2,3]triazin-3(4H)-yl)acetamide] |
| 16 |  | COc1cc(C)ccc1[C@H](C)NC(=O)[C@@H](C)n1nnc2ccccc2c1=O [Example 51, (R)—N—((S)-1-(2-methoxy-4-methylphenyl)ethyl)-2-(4-oxobenzo[d][1,2,3]triazin-3(4H)-yl)propanamide] |
| 80 |  | COc1ccc(CCN(C)C(=O)Cn2nnc3ccccc3c2=O)cc1 [Example 78, N-(4-methoxyphenethyl)-N-methyl-2-(4-oxobenzo[d][1,2,3]triazin-3(4H)-yl)acetamide] |
| 52 |  | COc1cc(C)ccc1[C@H](C)NC(=O)[C@H](C)n1nnc2ccccc2c1=O [Example 50, (S)—N—((S)-1-(2-methoxy-4-methylphenyl)ethyl)-2-(4-oxobenzo[d][1,2,3]triazin-3(4H)-yl)propanamide] |
| 39 |  | COc1ccc([C@H](C)NC(=O)Cn2nnc3c(OC)cccc3c2=O)cc1 [Example 31, (S)-2-(8-methoxy-4-oxobenzo[d][1,2,3]triazin-3 (4H)-yl)-N-(1-(4-methoxyphenyl)ethyl)acetamide] |

| SMILES | EC50 (human GPR139 receptor [1]) [nM] | Ki (human GPR139 receptor [2]) [nM] |
| --- | --- | --- |
| Cc1ccc([C@H](C)NC(=O)Cn2nnc3cccc(C)c3c2=O)cc1 [Example 39, (S)-2-(5-methyl-4-oxobenzo[d][1,2,3]triazin-3 (4H)-yl)-N-(1-p-tolylethyl)acetamide] | 6 | 92 |
